# Target: T1, HDAC6 enzyme (Homo sapiens, UniProt Q9UBN7)
# T1 construct: prepared by transducing full length HDAC1 and HDAC6 genes into Sf-9 insect cells; GST; purchased SignalChem; host or cells: Sf-9 insect cells
# T1 sequence (Q9UBN7 1-1215): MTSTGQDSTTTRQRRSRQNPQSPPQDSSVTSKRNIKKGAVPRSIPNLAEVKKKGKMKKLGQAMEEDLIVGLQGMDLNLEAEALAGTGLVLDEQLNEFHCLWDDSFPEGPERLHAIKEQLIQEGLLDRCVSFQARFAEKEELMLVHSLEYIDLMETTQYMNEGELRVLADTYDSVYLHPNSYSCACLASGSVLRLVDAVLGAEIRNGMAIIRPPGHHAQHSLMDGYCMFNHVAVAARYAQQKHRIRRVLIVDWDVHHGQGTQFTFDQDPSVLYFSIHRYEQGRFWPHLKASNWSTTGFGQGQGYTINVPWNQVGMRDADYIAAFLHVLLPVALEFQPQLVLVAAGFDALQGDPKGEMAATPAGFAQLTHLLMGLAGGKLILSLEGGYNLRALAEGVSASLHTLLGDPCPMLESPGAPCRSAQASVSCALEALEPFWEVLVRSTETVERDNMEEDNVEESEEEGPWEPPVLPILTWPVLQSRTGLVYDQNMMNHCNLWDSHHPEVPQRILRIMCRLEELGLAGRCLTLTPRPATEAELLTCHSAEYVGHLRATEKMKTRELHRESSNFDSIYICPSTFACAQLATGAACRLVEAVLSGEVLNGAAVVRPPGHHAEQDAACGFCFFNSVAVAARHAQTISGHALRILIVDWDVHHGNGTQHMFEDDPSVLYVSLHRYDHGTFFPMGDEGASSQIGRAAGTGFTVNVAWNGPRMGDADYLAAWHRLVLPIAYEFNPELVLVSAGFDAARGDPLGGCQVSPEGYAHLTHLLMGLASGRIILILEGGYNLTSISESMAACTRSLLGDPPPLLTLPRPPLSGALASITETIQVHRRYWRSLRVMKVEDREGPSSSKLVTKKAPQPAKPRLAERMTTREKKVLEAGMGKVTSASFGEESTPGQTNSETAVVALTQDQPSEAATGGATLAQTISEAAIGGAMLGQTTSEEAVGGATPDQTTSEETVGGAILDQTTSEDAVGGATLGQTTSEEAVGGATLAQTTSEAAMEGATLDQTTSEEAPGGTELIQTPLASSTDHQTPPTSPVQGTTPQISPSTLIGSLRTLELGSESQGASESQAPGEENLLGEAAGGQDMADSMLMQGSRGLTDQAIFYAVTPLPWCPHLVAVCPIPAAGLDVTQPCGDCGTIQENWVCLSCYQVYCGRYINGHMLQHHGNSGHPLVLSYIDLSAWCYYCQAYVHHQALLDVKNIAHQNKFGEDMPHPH
# Experiment: HDAC6 enzyme inhibitory assay (HDAC-Glo I/II Assay kit)
# Assay type: biochemical
# Conditions: 1 μM test compound; read-out: HDAC6 inhibitory rate (%) (1 μM)
# Method: HDAC1 enzyme and HDAC6 enzyme each prepared by transducing full length HDAC1 and HDAC6 genes into Sf-9 insect cells and purifying by GST affinity column were purchased from SignalChem. Using these enzymes, HDAC1 and/or HDAC6 enzyme inhibitory activities of the compound of the present invention were evaluated. Enzymes were used after preserved at −70° C. HDAC1 or HDAC6 enzyme inhibitory activity of the compound of the present invention was measured using HDAC-Glo™ I/II Assay kit (Promega) according to the following experimental method. The test compound diluted with assay buffer (24 mM Tris-HCl (pH 7.5), 1 mM MgCl2, 0.35 mM KCl, 135 mM NaCl, 0.6 mM Glutathione, 0.01% Tween-20) was added to a 384-well plate by each 2 μL. Then, HDAC1 or HDAC6 enzyme solution diluted with assay buffer was added thereto by each 4 μL, and the plate was incubated at room temperature for 60 min. After incubated, HDAC substrate-Developer solution prepared according to Promega protocol attached to the assay kit was added to the 384-well plate by each 2 μL, and the enzyme reaction was started. After reacting at room temperature for 20 min, luminescence level was measured using plate reader Envision (PerkinElmer). The inhibitory activity of each compound was calculated as a relative activity value when luminescence level in wells without enzyme is considered as 100% inhibition.
row,inhibition at 1 µM [%],SMILES
1,91,"N#Cc1cccc(C(=O)N2CCOCC2CNC(=O)c2ccc(-c3noc(C(F)(F)F)n3)s2)c1 (centres unmarked) [Example 218, N-((4-(3-cyanobenzoyl)morpholin-3-yl)methyl)-5-(5-(trifluoromethyl)-1,2,4-oxadiazol-3-yl)thiophene-2-carboxamide]"
2,93,"O=C(NCC1COCCN1C(=O)c1ccc(Cl)cc1)c1ccc(-c2noc(C(F)(F)F)n2)s1 (centres unmarked) [Example 216, N-((4-(4-chlorobenzoyl)morpholin-3-yl)methyl)-5-(5-(trifluoromethyl)-1,2,4-oxadiazol-3-yl)thiophene-2-carboxamide]"
3,80,"O=C(NCC1c2ccccc2CN1C(=O)c1ccccc1)c1ccc(-c2noc(C(F)(F)F)n2)cc1 (centres unmarked) [Example 170, N-((2-benzoyl-2,3-dihydro-1H-isoindol-1-yl)methyl)-4-(5-(trifluoromethyl)-1,2,4-oxadiazol-3-yl)benzamide]"
4,91,"O=C(NC[C@H]1COCCN1C(=O)c1cc2ccccc2o1)c1ccc(-c2noc(C(F)(F)F)n2)cn1 [Example 200, N-(((3S)-4-(1-benzofuran-2-ylcarbonyl)morpholin-3-yl)methyl)-5-(5-(trifluoromethyl)-1,2,4-oxadiazol-3-yl)pyridine-2-carboxamide]"
5,96,"Cc1ccsc1C(=O)N1CCOCC1CNC(=O)c1ccc(-c2noc(C(F)(F)F)n2)s1 (centres unmarked) [Example 244, N-((4-((3-methyl-2-thienyl)carbonyl)morpholin-3-yl)methyl)-5-(5-(trifluoromethyl)-1,2,4-oxadiazol-3-yl)thiophene-2-carboxamide]"
6,87,"Cc1oncc1C(=O)N1CCOC[C@H]1CNC(=O)c1ccc(-c2noc(C(F)(F)F)n2)cc1 [Example 131, N-(((3R)-4-((5-methyl-1,2-oxazol-4-yl)carbonyl)morpholin-3-yl)methyl)-4-(5-(trifluoromethyl)-1,2,4-oxadiazol-3-yl)benzamide]"
7,94,"O=C(NC[C@H]1COCCN1C(=O)C1CCc2ccccc2O1)c1ccc(-c2noc(C(F)(F)F)n2)cn1 (stereo partly drawn) [Example 199, N-(((3S)-4-(3,4-dihydro-2H-chromen-2-ylcarbonyl)morpholin-3-yl)methyl)-5-(5-(trifluoromethyl)-1,2,4-oxadiazol-3-yl)pyridine-2-carboxamide]"
8,61,"Cn1cnc(C(=O)N2CCOCC2CNC(=O)c2ccc(-c3noc(C(F)(F)F)n3)cc2)c1 (centres unmarked) [Example 17, N-((4-((1-methyl-1H-imidazol-4-yl)carbonyl)morpholin-3-yl)methyl)-4-(5-(trifluoromethyl)-1,2,4-oxadiazol-3-yl)benzamide]"
9,90,"N#CC1(C(=O)N2CCOC[C@H]2CNC(=O)c2ccc(-c3noc(C(F)(F)F)n3)cc2)CC1 [Example 127, N-(((3R)-4-((1-cyanocyclopropyl)carbonyl)morpholin-3-yl)methyl)-4-(5-(trifluoromethyl)-1,2,4-oxadiazol-3-yl)benzamide]"
10,93,"O=C(NC[C@@H]1COCCN1C(=O)c1cc[nH]n1)c1ccc(-c2noc(C(F)(F)F)n2)cc1 [Example 143, N-(((3R)-4-(1H-pyrazol-3-ylcarbonyl)morpholin-3-yl)methyl)-4-(5-(trifluoromethyl)-1,2,4-oxadiazol-3-yl)benzamide]"
11,91,"Cc1cc(C(=O)N2CCOCC2CNC(=O)c2ccc(-c3noc(C(F)(F)F)n3)s2)ccn1 (centres unmarked) [Example 227, N-((4-(2-methylisonicotinoyl)morpholin-3-yl)methyl)-5-(5-(trifluoromethyl)-1,2,4-oxadiazol-3-yl)thiophene-2-carboxamide]"
12,93,"O=C(NCC1COCCN1C(=O)C1CCOCC1)c1ccc(-c2noc(C(F)(F)F)n2)s1 (centres unmarked) [Example 255, N-((4-(tetrahydro-2H-pyran-4-ylcarbonyl)morpholin-3-yl)methyl)-5-(5-(trifluoromethyl)-1,2,4-oxadiazol-3-yl)thiophene-2-carboxamide]"
13,53,"O=C(NC[C@@H]1COCCN1C(=O)C(c1ccccc1)c1ccccc1)c1ccc(-c2noc(C(F)(F)F)n2)cc1 [Example 129, N-(((3R)-4-(diphenylacetyl)morpholin-3-yl)methyl)-4-(5-(trifluoromethyl)-1,2,4-oxadiazol-3-yl)benzamide]"
14,94,"O=C(NCC1COCCN1C(=O)c1cccc(Cl)c1)c1ccc(-c2noc(C(F)(F)F)n2)s1 (centres unmarked) [Example 215, N-((4-(3-chlorobenzoyl)morpholin-3-yl)methyl)-5-(5-(trifluoromethyl)-1,2,4-oxadiazol-3-yl)thiophene-2-carboxamide]"
15,88,"O=C(NC[C@@H]1COCCN1C(=O)c1cc2ncccn2n1)c1ccc(-c2noc(C(F)(F)F)n2)cc1 [Example 126, N-(((3R)-4-(pyrazolo[1,5-a]pyrimidin-2-ylcarbonyl)morpholin-3-yl)methyl)-4-(5-(trifluoromethyl)-1,2,4-oxadiazol-3-yl)benzamide]"
16,90,"N#Cc1ccc(C(=O)N2CCOCC2CNC(=O)c2ccc(-c3noc(C(F)(F)F)n3)s2)cc1 (centres unmarked) [Example 219, N-((4-(4-cyanobenzoyl)morpholin-3-yl)methyl)-5-(5-(trifluoromethyl)-1,2,4-oxadiazol-3-yl)thiophene-2-carboxamide]"
17,94,"N#Cc1ccccc1C(=O)N1CCOCC1CNC(=O)c1ccc(-c2noc(C(F)(F)F)n2)cc1 (stereo in doubt) [Example 115, N-(((3R)-4-(2-cyanobenzoyl)morpholin-3-yl)methyl)-4-(5-(trifluoromethyl)-1,2,4-oxadiazol-3-yl)benzamide]"
18,93,"Cc1csc(C(=O)N2CCOCC2CNC(=O)c2ccc(-c3noc(C(F)(F)F)n3)s2)c1 (centres unmarked) [Example 243, N-((4-((4-methyl-2-thienyl)carbonyl)morpholin-3-yl)methyl)-5-(5-(trifluoromethyl)-1,2,4-oxadiazol-3-yl)thiophene-2-carboxamide]"
19,97,"O=C(NCC1COCCN1C(=O)c1cccc(F)c1)c1ccc(-c2noc(C(F)(F)F)n2)s1 (centres unmarked) [Example 212, N-((4-(3-fluorobenzoyl)morpholin-3-yl)methyl)-5-(5-(trifluoromethyl)-1,2,4-oxadiazol-3-yl)thiophene-2-carboxamide]"
20,83,"O=C(NCC1COCCN1C(=O)C1(c2ccccc2)CCCCC1)c1ccc(-c2noc(C(F)(F)F)n2)s1 (centres unmarked) [Example 249, N-((4-((1-phenylcyclohexyl)carbonyl)morpholin-3-yl)methyl)-5-(5-(trifluoromethyl)-1,2,4-oxadiazol-3-yl)thiophene-2-carboxamide]"
21,94,"O=C(NCC1Cc2ccccc2CN1C(=O)C1CC1)c1ccc(-c2noc(C(F)(F)F)n2)cc1 (centres unmarked) [Example 174, N-((2-(cyclopropylcarbonyl)-1,2,3,4-tetrahydroisoquinolin-3-yl)methyl)-4-(5-(trifluoromethyl)-1,2,4-oxadiazol-3-yl)benzamide]"
22,91,"O=C(NCC1COCCN1C(=O)c1ccccc1)c1ccc(-c2noc(C(F)(F)F)n2)nc1 (centres unmarked) [Example 180, N-((4-benzoylmorpholin-3-yl)methyl)-6-(5-(trifluoromethyl)-1,2,4-oxadiazol-3-yl)nicotinamide]"
23,98,"O=C(NCC1COCCN1C(=O)CCc1ccccc1)c1ccc(-c2noc(C(F)(F)F)n2)s1 (centres unmarked) [Example 250, N-((4-(3-phenylpropanoyl)morpholin-3-yl)methyl)-5-(5-(trifluoromethyl)-1,2,4-oxadiazol-3-yl)thiophene-2-carboxamide]"
